The results in this text go back to patent publication US9302012B2, “Anti-bacterial siderophore-aminopenicillin conjugates” (University of Notre Dame Du Lac, priority 2012, dated 2016).

Each structure is given as a SMILES string. Like-named read-outs stand apart in the source and are kept apart here.

In one assay the test system is P. aeruginosa KW799/61. The experiment in a line: microbe, parasite or virus in culture. In kind it is cell-based, Pseudomonas aeruginosa. Conditions: for Diameter of growth inhibition zones: P. aeruginosa KW799/61. As to the method: All aqueous solutions and media were prepared using distilled, deionized, and filtered water (Millipore Milli-Q Advantage A10 Water Purification System). Luria broth (LB) was purchased from VWR. Mueller-Hinton No. 2 broth (MHII broth; cation adjusted) was purchased from Sigma-Aldrich (St. Louis, Mo.). Iron-deficient (—Fe) MHII broth was prepared by adding 0.8 mL of a 1 mg/mL sterile aq. solution of 2,2′-bipyridine to 49.2 mL of MHII broth. Iron-rich (+Fe) MHII broth was prepared by adding 0.8 mL of a 1 mg/mL sterile aq. solution of FeCl3 to 49.2 mL of MHII broth. Mueller-Hinton No. 2 agar (MHII agar; HiMedia Laboratories) was purchased from VWR. Iron-deficient (−Fe) MHII agar was prepared by adding 0.5 mL of a 1 mg/mL sterile aq. solution of 2,2′-bipyridine to 34 mL of melted MHII agar with gentle mixing. Iron-rich (+Fe) MHII agar was prepared by adding 0.5 mL of a 1 mg/mL sterile aq. solution of FeCl3 to 34 mL of melted MHII agar with gentle mixing.
(§1) Antibacterial Susceptibility Testing by the Agar Diffusion Assay.
Antibacterial activity of the compounds was determined by a modified Kirby-Bauer agar diffusion assay. Overnight cultures of test organisms were grown in LB broth for 18-24 h and standard suspensions of […] were prepared in saline solution (0.9% NaCl) according to a 0.5 BaSO4 McFarland Standard. This standardized suspension (0.1 mL) was added to 34 mL of sterile, melted agar (−Fe or +Fe) tempered to 47-50° C. […] Wells of 9.0 mm diameter were cut from the petri dish agar and filled with exactly 50 μL of the test sample solution. The petri dish was incubated at 37° C. for 18-24 h and the inhibition zone diameters were measured (mm) with an electronic caliper after 24 h.

Assay [1] has as its system collection of strains of P. aeruginosa. The experiment in a line: Agar well diffusion test (several strains). In kind it is cell-based, Pseudomonas aeruginosa. To be noted: KW799/wt, PAO1, Pa4, and Pa6; Table 1. As to the method:
Conjugates 10 and 11 were first evaluated for their antibacterial ability against a collection of strains of P. aeruginosa using the agar well diffusion test. The influence of iron concentration on antibacterial activity was probed as well by conducting assays in iron-rich and iron-deficient media.
(§2) All liquids and media were sterilized by autoclaving (121° C., 15 min) before use. All aqueous solutions and media were prepared using distilled, deionized, and filtered water (Millipore Milli-Q Advantage A10 Water Purification System). Luria broth (LB) was purchased from VWR. Mueller-Hinton No. 2 broth (MHII broth; cation adjusted) was purchased from Sigma-Aldrich (St. Louis, Mo.). Iron-deficient (—Fe) MHII broth was prepared by adding 0.8 mL of a 1 mg/mL sterile aq. solution of 2,2′-bipyridine to 49.2 mL of MHII broth. Iron-rich (+Fe) MHII broth was prepared by adding 0.8 mL of a 1 mg/mL sterile aq. solution of FeCl3 to 49.2 mL of MHII broth. Mueller-Hinton No. 2 agar (MHII agar; HiMedia Laboratories) was purchased from VWR. Iron-deficient (−Fe) MHII agar was prepared by adding 0.5 mL of a 1 mg/mL sterile aq. solution of 2,2′-bipyridine to 34 mL of melted MHII agar with gentle mixing. Iron-rich (+Fe) MHII agar was prepared by adding 0.5 mL of a 1 mg/mL sterile aq. solution of FeCl3 to 34 mL of melted MHII agar with gentle mixing. See also Wencewicz, T. A. Dissertation, University of Notre Dame, Notre Dame, Ind., 2011, for relevant techniques.
as §1
(§3) Antibacterial activity of the compounds was determined by a modified Kirby-Bauer agar diffusion assay. Overnight cultures of test organisms were grown in LB broth for 18-24 h and standard suspensions of […] were prepared in saline solution (0.9% NaCl) according to a 0.5 BaSO4 McFarland Standard. This standardized suspension (0.1 mL) was added to 34 mL of sterile, melted agar (−Fe or +Fe) tempered to 47-50° C. After gentle mixing, the inoculated agar media was poured into a sterile plastic petri dish (145 mm×20 mm) and allowed to solidify near a flame with the lid ajar for about 30 min. Wells of 9.0 mm diameter were cut from the petri dish agar and filled with exactly 50 μL of the test sample solution. The petri dish was incubated at 37° C. for 18-24 h and the inhibition zone diameters were measured (mm) with an electronic caliper after 24 h.

Another assay concerns P. aeruginosa Pa4. The experiment in a line: Agar diffusion antibacterial susceptibility assay. The class given is cell-based, Pseudomonas aeruginosa. Also noted: key to Diameter of growth inhibition zones: partially clear inhibition zone/colonies in the inhibition zone; P: unclear inhibition zone/many colonies in the inhibition zone; indicates only a hint of growth inhibition detectable. To be noted: 37° C.; for zone of inhibition at 200 µM / zone of inhibition at 100 µM: Pseudomonas aeruginosa, PA4, 24 h, read-out: Diameter of growth inhibition zones; for zone of inhibition at 200 µM / Diameter of growth inhibition zones: 50 μL of 0.2 mM solution; for Diameter of growth inhibition zones: 24 hours; for zone of inhibition at 100 µM: 50 μL of 0.1 mM solution. As to the method:
as §2, §1, §3

Another assay deals with P. aeruginosa Pa6. In words: Agar diffusion antibacterial susceptibility assay. In kind it is cell-based, Pseudomonas aeruginosa. To be noted: for Diameter of growth inhibition zones: −Fe agar; for activity against clinical isolate Pa6 (agar diffusion, in words): even under iron-deficient conditions. As for the experimental part: as §2, §1, §3
Assay [2] has as its system P. aeruginosa K648 (pvd−, pch−). The experiment in a line: Agar diffusion antibacterial susceptibility assay. The class given is cell-based, Pseudomonas aeruginosa. To be noted: for zone of inhibition at 200 µM / zone of inhibition at 100 µM: Pseudomonas aeruginosa, 24 h, read-out: Diameter of growth inhibition zones, P. aeruginosa K648 (pvd−, pch−), 37° C., 24 hours; for zone of inhibition at 200 µM: 50 μL of 0.2 mM solution; for activity against K648 strain (agar diffusion, in words): iron-rich medium; for zone of inhibition at 100 µM: 50 μL of 0.1 mM solution. As for the experimental part: as §2, §1, §3

For another assay, the system named is P. aeruginosa KW799/wt. The experiment in a line: Agar diffusion antibacterial susceptibility assay. The class given is cell-based, Pseudomonas aeruginosa. Conditions: 37° C.; for Diameter of growth inhibition zones / zone of inhibition at 200 µM: 50 μL of 0.2 mM solution; for Diameter of growth inhibition zones: 24 hours; for zone of inhibition at 200 µM / zone of inhibition at 100 µM: Pseudomonas aeruginosa, KW799/WT, 24 h, read-out: Diameter of growth inhibition zones; for zone of inhibition at 100 µM: 50 μL of 0.1 mM solution. As to the method: as §2, §1, §3

Assay [3] concerns E. coli H1443 (fepA+, cir+, fiu+). In words: Agar diffusion antibacterial susceptibility assay. In kind it is cell-based. To be noted: Escherichia coli, 24 h, 37° C., read-out: Diameter of growth inhibition zones; for zone of inhibition at 200 µM: 50 μL of 0.2 mM solution; for zone of inhibition at 100 µM: 50 μL of 0.1 mM solution. As for the experimental part:
as §2, §1, §3

The mark [4] stands for this setting: Pseudomonas aeruginosa, KW799/61, 24 h, read-out: Diameter of growth inhibition zones, P. aeruginosa KW799/61, +Fe agar, 50 μL of 0.2 mM solution, 37° C., 24 hours.
Setting [5] is: Pseudomonas aeruginosa, KW799/61, 24 h, read-out: Diameter of growth inhibition zones, P. aeruginosa KW799/61, −Fe agar, 50 μL of 0.2 mM solution, 37° C., 24 hours.
The mark [6] stands for this setting: P. aeruginosa Pa6, 50 μL of 0.2 mM solution, 37° C., 24 hours.
Setting [7] is: Pseudomonas aeruginosa, P. aeruginosa Pa6, +Fe agar, 50 μL of 0.2 mM solution, 37° C., 24 hours, read-out: Diameter of growth inhibition zones.

As for `CC1(C)S[C@@H]2[C@H](NC(=O)[C@H](N)c3ccccc3)C(=O)N2[C@H]1C(=O)O` [Ampicillin, reference compound], the zone of inhibition at 200 µM is 40 mm in the assay on P. aeruginosa KW799/61 (setting [4]); 40 mm with P. aeruginosa KW799/61 (setting [5]); 0 mm in the assay with P. aeruginosa Pa4 (+Fe agar); 0 mm in the assay on P. aeruginosa Pa6 (setting [7]); 0 mm in assay [2] (+Fe agar); 0 mm in assay [2] (−Fe agar). Besides, the “activity against wild type strains of P. aeruginosa (agar diffusion, in words)” value in assay [1] was “inactive or only weakly active”. In addition, the “Diameter of growth inhibition zones” value is “h” in the assay on P. aeruginosa Pa4 (−Fe agar), 0 mm in the assay on P. aeruginosa Pa6 (setting [6]) and 23p in the assay on P. aeruginosa KW799/wt (−Fe agar).

Consider `CC1(C)S[C@@H]2[C@H](NC(=O)[C@H](N)c3ccc(O)cc3)C(=O)N2[C@H]1C(=O)O` [Amoxicillin, reference compound], for which, in the assay with P. aeruginosa KW799/61 (P. aeruginosa permeable mutant K799/61), the “activity against permeable mutant (large zones of inhibition, in words)” value was “highly active”. Moreover, the zone of inhibition at 200 µM was 42 mm in the assay with P. aeruginosa KW799/61 (setting [4]); 39 mm with P. aeruginosa KW799/61 (setting [5]); 0 mm in the assay with P. aeruginosa Pa4 (+Fe agar); 0 mm with P. aeruginosa Pa6 (setting [7]); 0 mm in assay [2] (+Fe agar); 0 mm in assay [2] (−Fe agar). The zone of inhibition at 200 µM with P. aeruginosa KW799/wt (+Fe agar) was determined as 27 mm. Besides, the “activity against wild type strains of P. aeruginosa (agar diffusion, in words)” value in assay [1] is “inactive or only weakly active”. Besides, the “Diameter of growth inhibition zones” value in the assay on P. aeruginosa Pa4 (−Fe agar) is recorded as “h”; with P. aeruginosa Pa6 (setting [6]), 0 mm; with P. aeruginosa KW799/wt (−Fe agar) it was 18p.

On to `CC(=O)Oc1cccc(C(=O)NCCCC(CCCNC(=O)c2cccc(OC(C)=O)c2OC(C)=O)(CCCNC(=O)c2cccc(OC(C)=O)c2OC(C)=O)NC(=O)CCC(=O)NC(C(=O)NC2C(=O)N3C2SC(C)(C)C3C(=O)O)c2ccc(O)cc2)c1OC(C)=O` (centres unmarked) [Compound 11], for which the “Diameter of growth inhibition zones” value in the assay on P. aeruginosa KW799/61 (+Fe agar, 50 μL of 0.2 mM solution, 37° C., 24 hours) came out at 13P; in the assay with P. aeruginosa Pa6 (setting [6]), 0 mm. In addition, the zone of inhibition at 200 µM amounted to 26 mm in the assay on P. aeruginosa KW799/61 (setting [5]); 0 mm in assay [3] (+Fe agar); 21 mm in assay [3] (−Fe agar); 0 mm with P. aeruginosa Pa4 (+Fe agar); 20 mm with P. aeruginosa Pa4 (−Fe agar); 0 mm with P. aeruginosa Pa6 (setting [7]). The zone of inhibition at 200 µM in assay [2] (+Fe agar) was found to be 0 mm; in assay [2] (−Fe agar), 17 mm; in the assay on P. aeruginosa KW799/wt (+Fe agar) it was 25 mm; in the assay on P. aeruginosa KW799/wt (−Fe agar), 26 mm. In addition, the “activity against clinical isolate Pa6 (agar diffusion, in words)” value in the assay on P. aeruginosa Pa6 is given as “no activity”. Further, the “activity against K648 strain (agar diffusion, in words)” value in assay [2] was “inactive”.

On to `CC(=O)Oc1cccc(C(=O)NCCCC(CCCNC(=O)c2cccc(OC(C)=O)c2OC(C)=O)(CCCNC(=O)c2cccc(OC(C)=O)c2OC(C)=O)NC(=O)CCC(=O)NC(C(=O)NC2C(=O)N3C2SC(C)(C)C3C(=O)O)c2ccccc2)c1OC(C)=O` (centres unmarked) [Compound 10], for which the “Diameter of growth inhibition zones” value in the assay on P. aeruginosa KW799/61 (+Fe agar, 50 μL of 0.1 mM solution, 37° C., 24 hours) was 13P; with P. aeruginosa Pa6 (P. aeruginosa Pa6, 50 μL of 0.1 mM solution, 37° C., 24 hours) it was 0 mm. Besides, the zone of inhibition at 100 µM in the assay on P. aeruginosa KW799/61 (Pseudomonas aeruginosa, KW799/61, 24 h, read-out: Diameter of growth inhibition zones, P. aeruginosa KW799/61, −Fe agar, 50 μL of 0.1 mM solution, 37° C., 24 hours) was found to be 21 mm; in assay [3] (+Fe agar), 0 mm; in assay [3] (−Fe agar) it was 19 mm; with P. aeruginosa Pa4 (+Fe agar) it was 0 mm; in the assay with P. aeruginosa Pa4 (−Fe agar), 18 mm; with P. aeruginosa Pa6 (Pseudomonas aeruginosa, P. aeruginosa Pa6, +Fe agar, 50 μL of 0.1 mM solution, 37° C., 24 hours, read-out: Diameter of growth inhibition zones), 0 mm. For the same molecule, the zone of inhibition at 100 µM is 0 mm in assay [2] (+Fe agar), 15 mm in assay [2] (−Fe agar), 20 mm in the assay with P. aeruginosa KW799/wt (+Fe agar) and 24 mm in the assay on P. aeruginosa KW799/wt (−Fe agar). For the same molecule, in the assay on P. aeruginosa Pa6, the “activity against clinical isolate Pa6 (agar diffusion, in words)” value is recorded as “no activity”. For the same molecule, the “activity against K648 strain (agar diffusion, in words)” value in assay [2] is “inactive”.
